One data set has as its target UCHL1 (Homo sapiens, UniProt P09936). The data set can be described thus: biochemical.
Another data set concerns the target caspase 3 (Homo sapiens, UniProt P42574). Nature of the data set: biochemical.
For data set [1] the following is noted: mouse.
The target in a further data set is DEN1 (Homo sapiens, UniProt Q96LD8). The data set can be described thus: biochemical.
The next data set concerns the target cathepsin K (Homo sapiens, UniProt P43235). Nature of the data set: biochemical.
Another data set addresses USP7 (Homo sapiens, UniProt Q93009). Nature of the data set: biochemical.
The target of the next data set is USP2 (Homo sapiens, UniProt O75604). The data set can be described thus: biochemical.
Chain of USP2 (O75604 whole entry): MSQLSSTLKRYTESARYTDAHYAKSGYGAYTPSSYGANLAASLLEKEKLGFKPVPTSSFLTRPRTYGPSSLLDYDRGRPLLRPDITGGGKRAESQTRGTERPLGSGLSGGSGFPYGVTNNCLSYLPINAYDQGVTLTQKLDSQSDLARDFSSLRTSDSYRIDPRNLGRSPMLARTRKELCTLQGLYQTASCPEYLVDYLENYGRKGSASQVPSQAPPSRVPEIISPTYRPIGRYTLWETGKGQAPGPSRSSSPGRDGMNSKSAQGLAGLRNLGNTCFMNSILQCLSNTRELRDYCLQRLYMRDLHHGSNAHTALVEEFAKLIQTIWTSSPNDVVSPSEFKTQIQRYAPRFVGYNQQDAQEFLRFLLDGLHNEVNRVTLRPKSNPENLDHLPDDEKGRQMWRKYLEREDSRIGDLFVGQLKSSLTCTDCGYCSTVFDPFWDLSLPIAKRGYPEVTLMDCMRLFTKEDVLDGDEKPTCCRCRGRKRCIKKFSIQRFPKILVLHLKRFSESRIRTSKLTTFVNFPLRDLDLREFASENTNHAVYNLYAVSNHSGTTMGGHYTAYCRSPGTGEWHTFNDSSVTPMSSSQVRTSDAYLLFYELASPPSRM
Data set [2] concerns SARS-CoV infected Vero E6 cells. The data set is classed as cell-based.
The next data set addresses USP20 (Homo sapiens, UniProt Q9Y2K6). The data set can be described thus: biochemical.
Data set [3] relates to SARS-CoV infected Vero E6 cells. As to conditions: read-out: EC50 (SARS-CoV antiviral); cited from earlier work.

Chain of cathepsin K (P43235 115-329): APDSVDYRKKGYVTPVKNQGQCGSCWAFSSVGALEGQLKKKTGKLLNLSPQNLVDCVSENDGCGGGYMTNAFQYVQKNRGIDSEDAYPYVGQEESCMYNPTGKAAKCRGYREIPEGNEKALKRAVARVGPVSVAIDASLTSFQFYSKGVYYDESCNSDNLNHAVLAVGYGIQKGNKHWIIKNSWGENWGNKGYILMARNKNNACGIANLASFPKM
Chain of USP7 (Q93009 whole entry): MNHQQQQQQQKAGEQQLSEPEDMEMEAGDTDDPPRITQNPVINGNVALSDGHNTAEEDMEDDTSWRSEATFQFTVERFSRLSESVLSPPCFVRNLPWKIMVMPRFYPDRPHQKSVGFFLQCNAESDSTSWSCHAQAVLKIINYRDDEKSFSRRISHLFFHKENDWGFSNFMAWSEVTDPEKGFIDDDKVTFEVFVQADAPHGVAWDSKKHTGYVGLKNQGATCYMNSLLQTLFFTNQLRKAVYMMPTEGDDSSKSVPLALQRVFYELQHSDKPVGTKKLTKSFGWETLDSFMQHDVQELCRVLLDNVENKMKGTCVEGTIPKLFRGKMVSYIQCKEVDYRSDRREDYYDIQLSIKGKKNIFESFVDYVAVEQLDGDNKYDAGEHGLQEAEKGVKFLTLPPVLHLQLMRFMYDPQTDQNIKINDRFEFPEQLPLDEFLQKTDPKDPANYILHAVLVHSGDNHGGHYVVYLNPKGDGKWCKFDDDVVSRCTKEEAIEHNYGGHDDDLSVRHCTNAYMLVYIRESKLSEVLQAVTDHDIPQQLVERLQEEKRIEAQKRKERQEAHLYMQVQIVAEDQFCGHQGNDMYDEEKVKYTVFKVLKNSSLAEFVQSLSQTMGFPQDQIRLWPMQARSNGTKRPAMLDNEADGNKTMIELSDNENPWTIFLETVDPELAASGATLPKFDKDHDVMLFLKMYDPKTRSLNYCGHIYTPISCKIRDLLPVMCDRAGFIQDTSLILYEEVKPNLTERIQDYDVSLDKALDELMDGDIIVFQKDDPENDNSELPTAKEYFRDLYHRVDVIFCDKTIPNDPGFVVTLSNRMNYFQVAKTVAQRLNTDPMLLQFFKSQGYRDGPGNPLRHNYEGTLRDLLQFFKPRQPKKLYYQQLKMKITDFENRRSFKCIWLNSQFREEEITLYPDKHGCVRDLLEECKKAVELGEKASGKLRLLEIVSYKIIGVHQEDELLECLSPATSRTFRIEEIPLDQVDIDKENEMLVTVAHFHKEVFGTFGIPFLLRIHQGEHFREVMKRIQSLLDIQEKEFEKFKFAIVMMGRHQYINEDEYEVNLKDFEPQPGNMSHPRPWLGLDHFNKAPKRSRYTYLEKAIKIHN
Chain of DEN1 (Q96LD8 whole entry): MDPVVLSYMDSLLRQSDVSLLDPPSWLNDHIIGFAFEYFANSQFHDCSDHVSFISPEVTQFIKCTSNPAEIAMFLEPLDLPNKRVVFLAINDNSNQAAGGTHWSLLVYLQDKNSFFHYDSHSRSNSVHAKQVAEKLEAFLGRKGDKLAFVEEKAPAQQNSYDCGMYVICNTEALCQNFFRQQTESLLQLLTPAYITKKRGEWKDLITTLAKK
Chain of caspase 3 (P42574 29-175): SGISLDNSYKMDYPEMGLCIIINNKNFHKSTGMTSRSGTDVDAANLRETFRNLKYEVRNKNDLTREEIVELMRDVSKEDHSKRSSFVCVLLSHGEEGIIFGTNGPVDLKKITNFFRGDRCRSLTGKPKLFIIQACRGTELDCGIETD
Chain of caspase 3 (P42574 176-277): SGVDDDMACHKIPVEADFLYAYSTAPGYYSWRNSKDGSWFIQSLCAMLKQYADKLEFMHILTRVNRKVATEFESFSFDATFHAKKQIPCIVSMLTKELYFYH
Chain of UCHL1 (P09936 whole entry): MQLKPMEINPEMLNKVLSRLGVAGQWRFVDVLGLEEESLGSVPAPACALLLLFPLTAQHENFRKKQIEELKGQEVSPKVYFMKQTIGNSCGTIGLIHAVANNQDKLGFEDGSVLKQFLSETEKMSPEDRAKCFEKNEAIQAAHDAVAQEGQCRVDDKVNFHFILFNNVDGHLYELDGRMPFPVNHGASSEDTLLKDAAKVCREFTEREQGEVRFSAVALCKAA
Chain of USP20 (Q9Y2K6 whole entry): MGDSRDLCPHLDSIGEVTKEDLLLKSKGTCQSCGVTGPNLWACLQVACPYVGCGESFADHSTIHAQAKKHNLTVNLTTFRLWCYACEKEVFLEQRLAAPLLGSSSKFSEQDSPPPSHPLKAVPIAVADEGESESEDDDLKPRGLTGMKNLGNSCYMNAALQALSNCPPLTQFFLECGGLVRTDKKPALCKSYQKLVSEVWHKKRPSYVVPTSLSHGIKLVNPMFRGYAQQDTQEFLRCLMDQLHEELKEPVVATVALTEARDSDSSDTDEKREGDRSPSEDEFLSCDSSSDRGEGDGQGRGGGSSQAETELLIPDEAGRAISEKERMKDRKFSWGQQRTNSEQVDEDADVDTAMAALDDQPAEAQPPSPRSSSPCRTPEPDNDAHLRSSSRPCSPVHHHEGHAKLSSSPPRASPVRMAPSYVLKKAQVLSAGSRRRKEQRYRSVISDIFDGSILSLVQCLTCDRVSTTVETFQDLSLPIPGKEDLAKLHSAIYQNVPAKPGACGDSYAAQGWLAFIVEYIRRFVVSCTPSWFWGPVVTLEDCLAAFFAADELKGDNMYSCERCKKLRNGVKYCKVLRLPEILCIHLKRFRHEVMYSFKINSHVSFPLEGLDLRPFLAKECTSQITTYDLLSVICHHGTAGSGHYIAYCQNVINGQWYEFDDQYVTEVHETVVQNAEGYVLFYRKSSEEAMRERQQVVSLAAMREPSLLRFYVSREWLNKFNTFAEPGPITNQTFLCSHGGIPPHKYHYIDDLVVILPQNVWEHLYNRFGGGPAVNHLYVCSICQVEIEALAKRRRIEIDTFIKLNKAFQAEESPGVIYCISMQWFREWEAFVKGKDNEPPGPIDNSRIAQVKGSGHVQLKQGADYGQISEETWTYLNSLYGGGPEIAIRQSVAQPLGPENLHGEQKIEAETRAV

The term IC50 denotes the concentration at which inhibition is half-maximal. Higher therefore signals lower potency. For the molecule `CC(=O)Nc1cccc(CNC(=O)C2CCN([C@H](C)c3cccc4ccccc34)CC2)c1` [3e, (R)-N-(3-Acetamidobenzyl)-1-(1-(naphthalen-1-yl)ethyl)piperidine-4-carboxamide], the 50% inhibitory concentration (IC50) against UCHL1, against caspase 3, against DEN1 and on cathepsin K was above 100 µM each time. The “half-life longer than that of 15g” value in data set [1] was 4-5 fold.
On to `C[C@H](c1cccc2ccccc12)N1CCC(C(=O)NCc2ccc(F)cc2)CC1` [3j, (R)-N-(4-Fluorobenzyl)-1-(1-(naphthalen-1-yl)ethyl)piperidine-4-carboxamide], for which the IC50 at UCHL1, on USP7, against caspase 3, against USP2, at DEN1 and on cathepsin K was above 100 µM each time.
As to `C[C@H](c1cccc2ccccc12)N1CCC(C(=O)NCc2cccc(F)c2)CC1` [3k, (R)-N-(3-Fluorobenzyl)-1-(1-(naphthalen-1-yl)ethyl)piperidine-4-carboxamide], the IC50 on UCHL1, against USP7, on caspase 3, against USP2, against DEN1 and against cathepsin K was above 100 µM in each case. Further, the “improvement in antiviral activity compared to 15g” value in data set [2] came to 2 fold.
Consider `COc1cc(CNC(=O)C2CCN([C@H](C)c3cccc4ccccc34)CC2)ccn1` [5c, (R)-N-((2-Methoxypyridin-4-yl)methyl)-1-(1-(naphthalen-1-yl)ethyl)piperidine-4-carboxamide], for which the “half-life longer than that of 15g” value in data set [1] was 4-5 fold.
A word on the EC50: it is the concentration that produces a half-maximal response. As to `C[C@H](c1cccc2ccccc12)N1CCC(C(=O)NCc2ccc3c(c2)OCO3)CC1` [15g, reference compound], the half-inhibitory concentration (IC50) against USP20, against UCHL1, against USP7, at caspase 3, against USP2 and at DEN1 was above 100 µM in each case. This molecule also came in with an IC50 against cathepsin K above 100 µM. Also, the concentration for a half-maximal effect (EC50) in data set [3] is 9.1 µM.

These data come from PMC3983375 (Journal of Medicinal Chemistry, 2014).
